# Source: patent US20210308034A1, “PREBIOTIC COMPOSITIONS AND METHODS FOR MAINTAINING A HEALTHY SKIN MICROBIOTA” (KIMBERLY-CLARK WORLDWIDE, INC., priority 2018, published 2021)
# Assays:
# Assay type in all cases: cell-based
# [1] = tested on: Klebsiella pneumoniae (ATCC BAA-2146); conditions: Pathogenic; carbon microarray plate, OD 600 nm, 36 hr, 33° C.; positive = more than 0.05 OD units above zero; blank cell = not utilized
# Text: (§1) After creating desired ratios of various commensal skin bacteria in a healthy skin microbiome, 188 different carbohydrate sources were screened as the next step in determining potential prospects for skin microbiota balancing agents. The screening process was set up to determine which carbohydrate sources promoted commensal and/or pathogenic bacteria as well as to obtain individual and combinations of carbohydrate sources that could serve as microbiota balancing agents that can support or maintain the healthy proportions of commensal skin bacteria of Corynebacterium, Staphylococcus, and Micrococcus. The screening was conducted utilizing Biolog phenotype microarray plates (Hayward, Calif.). Table 1 provides a coded list of the commensal and pathogenic skin bacteria that the carbohydrates were screened against.
# Table 2 provides the results of screening various carbohydrate sources against the commensal and pathogenic bacteria codes listed in Table 1. The Bacteria Codes B, D, E, I, and J are commensal bacteria and are shaded in Table 2 for references purposes. The bacteria codes were each placed in a carbon microarray plate and screened through the Carbohydrate Screening Test Method, as described in the Test Methods section herein. If a particular bacteria code utilized a specific carbohydrate source as described in the Carbohydrate Screening Test Method, then the corresponding cell in Table 2 was marked with a Y (short for “Yes”). […] Many of the carbohydrate sources were utilized by both commensal and pathogenic bacteria, and as such, would not provide an advantage for selective growth of the commensal bacteria. However, some of the carbohydrate sources were only used by commensal bacteria and were identified for further testing as described herein.
# (§2) The study employed 10 representative skin bacteria; Staphylococcus epidermidis ATCC 14990, Staphylococcus epidermidis M23864:W2, Staphylococcus aureus ATCC 6538, Staphylococcus aureus ATCC 25904 (Newman), Pseudomonas aeruginosa ATCC 9027, Micrococcus luteus ATCC […], Micrococcus luteus SK58, Klebsiella pneumoniae ATCC BAA-2146, Corynebacterium amycolatum SK46, and Corynebacterium minutissimum ATCC 23348. Cultures were started from freezer bead stocks by placing a single bead into 20 mL of tryptic soy broth (TSB) for all organisms except C. amycolatum SK46 and C. minutissimum ATCC 23348, which were placed into brain heart infusion (BHI) broth. Cultures were grown for about 24 hr at 37° C. except M. luteus ATCC 49732 and M. luteus SK58, which were grown at 30° C. A passage of the culture was made using a sterile swab and streaked onto two M9*2 agar plates to prepare the incubated culture for the phenotype microarray pate according to Table 4. Plates were incubated for about 24 hr at 37° C. except for M. luteus ATCC 49732 and M. luteus SK58, which were incubated at 30° C. for 24 hr.
# (§3) All cultures were harvested and washed before inoculation into the carbon microarray plate (BiOLOG, Hayward Calif.), with Biolog Plates PM1 and PM2 each having a source definition of Carbon. The bacteria on the M9*2 agar was suspended via agitation with an inoculating loop in 1 mL of M9*1 media for collection in a 1.7 mL micro centrifuge tube, as noted in Table 4. The bacteria was suspended again in M9*1 media, agitated, and collected into the same 1.7 mL microcentrifuge tube used in the previous step. The tube was centrifuged for 5 minutes at 4,000×G, supernatant decanted, the pellet was resuspended in 1 mL of M9*1 media, and vortex. This washing process was repeated for a total of 4 times.
# A tenfold dilution in M9*1 media was performed using 1 mL of the washed bacterial culture. Of the tenfold dilution 200 μL was placed in an untreated 96-well plate (Falcon, Pasadena Tx.) for an initial optical density (OD) reading at a wavelength of 600 nm. The OD was used to correlate to colony forming units (CFU) per milliliter by using linear regression lines for each organism. […]
# [2] = tested on: Micrococcus luteus (SK58); experiment: Carbohydrate Screening Test Method (Biolog phenotype microarray), Bacteria Code E; conditions: Commensal; carbon microarray plate, OD 600 nm, 36 hr, 33° C.; positive = more than 0.05 OD units above zero; blank cell = not utilized
# Text: as §1
# (§4) The Bacteria Codes B, D, E, I, and J are commensal bacteria and are shaded in Table 2 for references purposes. The bacteria codes were each placed in a carbon microarray plate and screened through the Carbohydrate Screening Test Method, as described in the Test Methods section herein. If a particular bacteria code utilized a specific carbohydrate source as described in the Carbohydrate Screening Test Method, then the corresponding cell in Table 2 was marked with a Y (short for “Yes”).
# (§5) To do so, the respective microarray data for the 79 carbohydrate sources was run through the GrowthRates 2.1 program to obtain growth parameters, such as growth rates and maximum yield data as described by the Belingham Research Institute, Hall, B. G., H. Acar and M. Barlow. 2014 Growth Rates Made Easy. Mol. Biol. Evol. 31:232-238 doi:10.1093/molbev/mst197. The max yield parameters generated were utilized to calculate ratios of tested commensal bacteria. The ratios calculated were compared back to the desired ratios identified above (Corynebacterium to Staphylococcus of 1.3, Corynebacterium to Micrococcus of 1.4, and Staphylococcus to Micrococcus of 1.1).
# (§6) As an example of this methodology used to calculate the commensal bacteria ratios and the difference between the calculated ratios and the desired ratios, an example code from Table 3 will be described. […] The max yields were then used to calculate ratios the bacteria would reach in a co-culture.
# [3] = tested on: Corynebacterium jeikum (ATCC 33033); experiment: Carbohydrate Screening Test Method (Biolog phenotype microarray), Bacteria Code B
# Description: as §1, with “The” for “After creating desired ratios of various commensal skin bacteria in a healthy skin microbiome, 188 different carbohydrate sources were screened as the next step in determining potential prospects for skin microbiota balancing agents. The”
# as §4
# as §5, with “2014 Growth Rates Made Easy.” left out, “31:232-238 doi:10.1093/molbev/mst197.” left out
# as §6
# A passage of the culture was made using a sterile swab and streaked onto two M9*2 agar plates to prepare the incubated culture for the phenotype microarray pate according to Table 4.
# All cultures were harvested and washed before inoculation into the carbon microarray plate (BiOLOG, Hayward Calif.), with Biolog Plates PM1 and PM2 each having a source definition of Carbon. The bacteria on the M9*2 agar was suspended via agitation with an inoculating loop in 1 mL of M9*1 media for collection in a 1.7 mL micro centrifuge tube, as noted in Table 4.
# [4] = tested on: Pseudomonas aeruginosa (ATCC 9027); conditions: Pathogenic; carbon microarray plate, OD 600 nm, 36 hr, 33° C.; positive = more than 0.05 OD units above zero; blank cell = not utilized
# Text: as §1, §4, §2, §3
# A tenfold dilution in M9*1 media was performed using 1 mL of the washed bacterial culture. Of the tenfold dilution 200 μL was placed in an untreated 96-well plate (Falcon, Pasadena Tx.) for an initial optical density (OD) reading at a wavelength of 600 nm. The OD was used to correlate to colony forming units (CFU) per milliliter by using linear regression lines for each organism.
# [5] = Commensal, carbon microarray plate, OD 600 nm, 36 hr, 33° C., positive = more than 0.05 OD units above zero, blank cell = not utilized
compound,measurement,setting,value
C[C@H](O)[C@@H](O)[C@@H](O)[C@H](O)C=O [L-Fucose],"Carbohydrate Screening Results, Bacteria Code C",[1],Y
same,"Carbohydrate Screening Results, Bacteria Code E",[2],Y
same,"Carbohydrate Screening Results, Bacteria Code B",[3]; [5],Y
O=P(O)(O)O[C@H]1O[C@H](CO)[C@@H](O)[C@H](O)[C@H]1O [D-Glucose-1-Phosphate],"Carbohydrate Screening Results, Bacteria Code C",[1],Y
same,"Carbohydrate Screening Results, Bacteria Code E",[2],Y
same,"Carbohydrate Screening Results, Bacteria Code B",[3]; [5],Y
O=C(O)[C@H](O)[C@@H](O)C(=O)O [L-Tartaric Acid],"Carbohydrate Screening Results, Bacteria Code F",[4],Y
same,"Carbohydrate Screening Results, Bacteria Code C",[1],Y
O=C(CO)[C@H](O)[C@H](O)[C@H](O)CO [D-Psicose],"Carbohydrate Screening Results, Bacteria Code F",[4],Y
same,"Carbohydrate Screening Results, Bacteria Code C",[1],Y
same,"Carbohydrate Screening Results, Bacteria Code E",[2],Y
same,"Carbohydrate Screening Results, Bacteria Code B",[3]; [5],Y
COC1OC(CO)C(O)C(O)C1O [α-Methyl-D-Galactoside],"Carbohydrate Screening Results, Bacteria Code C",[1],Y
same,"Carbohydrate Screening Results, Bacteria Code E",[2],Y
same,"Carbohydrate Screening Results, Bacteria Code B",[3]; [5],Y
OC[C@@H](O)C(O)[C@H](O)CO [D-Arabitol],"Carbohydrate Screening Results, Bacteria Code F",[4],Y
same,"Carbohydrate Screening Results, Bacteria Code C",[1],Y
CO[C@@H]1O[C@H](CO)[C@@H](O)[C@H](O)[C@H]1O [β-Methyl-D-Galactoside],"Carbohydrate Screening Results, Bacteria Code F",[4],Y
same,"Carbohydrate Screening Results, Bacteria Code C",[1],Y
O[C@H]1[C@H](O)[C@@H](O)[C@H](O)[C@@H](O)[C@H]1O [m-Inositol],"Carbohydrate Screening Results, Bacteria Code C",[1],Y
same,"Carbohydrate Screening Results, Bacteria Code E",[2],Y
same,"Carbohydrate Screening Results, Bacteria Code B",[3]; [5],Y
N[C@H]1C(O)O[C@H](CO)[C@@H](O)[C@@H]1O (stereo partly drawn) [D-Glucosamine],"Carbohydrate Screening Results, Bacteria Code F",[4],Y
same,"Carbohydrate Screening Results, Bacteria Code C",[1],Y
NC(=O)CC[C@H](N)C(=O)O [L-Glutamine],"Carbohydrate Screening Results, Bacteria Code C",[1],Y
same,"Carbohydrate Screening Results, Bacteria Code B",[3]; [5],Y
C=C(CC(=O)O)C(=O)O [Itaconic Acid],"Carbohydrate Screening Results, Bacteria Code F",[4],Y
CC(O)(CC(=O)O)C(=O)O (centres unmarked) [Citramalic Acid],"Carbohydrate Screening Results, Bacteria Code F",[4],Y
CCCCCC(=O)O [Caproic Acid],"Carbohydrate Screening Results, Bacteria Code F",[4],Y
Gentiobiose,"Carbohydrate Screening Results, Bacteria Code F",[4],Y
same,"Carbohydrate Screening Results, Bacteria Code C",[1],Y
NC(=O)C[C@H](N)C(=O)O [L-Asparagine],"Carbohydrate Screening Results, Bacteria Code F",[4],Y
same,"Carbohydrate Screening Results, Bacteria Code B",[3]; [5],Y
N[C@@H](Cc1c[nH]cn1)C(=O)O [L-Histidine],"Carbohydrate Screening Results, Bacteria Code F",[4],Y
same,"Carbohydrate Screening Results, Bacteria Code C",[1],Y
OC[C@@H](O)[C@@H](O)[C@@H](O)CO [Adonitol],"Carbohydrate Screening Results, Bacteria Code F",[4],Y
same,"Carbohydrate Screening Results, Bacteria Code C",[1],Y
same,"Carbohydrate Screening Results, Bacteria Code E",[2],Y
same,"Carbohydrate Screening Results, Bacteria Code B",[3]; [5],Y
CCCCCCCCCC(=O)O [Capric Acid],"Carbohydrate Screening Results, Bacteria Code F",[4],Y
C[C@H](O)[C@H](O)[C@@H](O)[C@@H](O)C=O [L-Rhamnose],"Carbohydrate Screening Results, Bacteria Code C",[1],Y
same,"Carbohydrate Screening Results, Bacteria Code E",[2],Y
same,"Carbohydrate Screening Results, Bacteria Code B",[3]; [5],Y
OC[C@@H](O)[C@@H](O[C@H]1O[C@H](CO)[C@@H](O)[C@H](O)[C@H]1O)[C@H](O)[C@@H](O)CO [Maltitol],"Carbohydrate Screening Results, Bacteria Code F",[4],Y
same,"Carbohydrate Screening Results, Bacteria Code C",[1],Y
O=C[C@H](O)[C@@H](O)[C@H](O)CO [D-Xylose],"Carbohydrate Screening Results, Bacteria Code F",[4],Y
same,"Carbohydrate Screening Results, Bacteria Code C",[1],Y
CCCC(=O)O [Butyric Acid],"Carbohydrate Screening Results, Bacteria Code F",[4],Y
OC[C@@H](O)[C@@H](O)[C@H](O)[C@@H](O)CO [D-Sorbitol],"Carbohydrate Screening Results, Bacteria Code F",[4],Y
same,"Carbohydrate Screening Results, Bacteria Code C",[1],Y
same,"Carbohydrate Screening Results, Bacteria Code E",[2],Y
O=C(O)[C@]1(O)C[C@@H](O)[C@@H](O)[C@H](O)C1 [Quinic Acid],"Carbohydrate Screening Results, Bacteria Code F",[4],Y
same,"Carbohydrate Screening Results, Bacteria Code C",[1],Y
O=C[C@H](O)[C@@H](O)[C@@H](O)CO [L-Arabinose],"Carbohydrate Screening Results, Bacteria Code F",[4],Y
same,"Carbohydrate Screening Results, Bacteria Code C",[1],Y
O=C1O[C@@H]([C@H](O)CO)[C@H](O)[C@H]1O [D-Galactonic Acid-γ-Lactone],"Carbohydrate Screening Results, Bacteria Code F",[4],Y
same,"Carbohydrate Screening Results, Bacteria Code C",[1],Y
OC[C@H]1O[C@H](OCC2O[C@@H](O)[C@H](O)[C@@H](O)[C@@H]2O)[C@H](O)[C@@H](O)[C@H]1O (stereo partly drawn) [D-Melibiose],"Carbohydrate Screening Results, Bacteria Code F",[4],Y
same,"Carbohydrate Screening Results, Bacteria Code C",[1],Y
same,"Carbohydrate Screening Results, Bacteria Code E",[2],Y
same,"Carbohydrate Screening Results, Bacteria Code B",[3]; [5],Y
N[C@@H](CCC(=O)O)C(=O)O [L-Glutamic Acid],"Carbohydrate Screening Results, Bacteria Code F",[4],Y
same,"Carbohydrate Screening Results, Bacteria Code B","[3]; ATCC33033, 36 h",Y
NCCc1ccc(O)cc1 [Tyramine],"Carbohydrate Screening Results, Bacteria Code F",[4],Y
same,"Carbohydrate Screening Results, Bacteria Code C",[1],Y
same,"Carbohydrate Screening Results, Bacteria Code B",[3]; [5],Y
O=C1CC[C@@H](C(=O)O)N1 [L-Pyroglutamic Acid],"Carbohydrate Screening Results, Bacteria Code F",[4],Y
O=C[C@H](O)[C@@H](O)[C@H](O)[C@H](O)C(=O)O [D-Glucuronic Acid],"Carbohydrate Screening Results, Bacteria Code F",[4],Y
same,"Carbohydrate Screening Results, Bacteria Code C",[1],Y
same,"Carbohydrate Screening Results, Bacteria Code E",[2],Y
same,"Carbohydrate Screening Results, Bacteria Code B",[3]; [5],Y
